Results as given in ChEMBL document CHEMBL4396961, “Exploring the size of the lipophilic unit of the soluble epoxide hydrolase inhibitors” (Bioorg Med Chem, 2019).
In brackets after ≈: the same amount, converted by molar mass.

Assays:
[1] = Apparent permeability across apical to basolateral membrane in human Caco2 cells at 10 uM measured after 2 hrs by UPLC-MS/MS analysis; conditions: caco-2, 2 h
[2] = Apparent permeability across basolateral to apical membrane in human Caco2 cells at 10 uM measured after 2 hrs by UPLC-MS/MS analysis; conditions: caco-2, 2 h
physchem = conditions: 1% DMSO : 99% PBS buffer solution
[3] = molecular target: T1, Bifunctional epoxide hydrolase 2 (Homo sapiens, UniProt P34913); assay: Inhibition of recombinant human liver soluble epoxide hydrolase expressed in baculovirus infected Sf21 cells using NEPC as substrate by fluorescence based assay; assay type: cell-based
T1 sequence (P34913 whole entry): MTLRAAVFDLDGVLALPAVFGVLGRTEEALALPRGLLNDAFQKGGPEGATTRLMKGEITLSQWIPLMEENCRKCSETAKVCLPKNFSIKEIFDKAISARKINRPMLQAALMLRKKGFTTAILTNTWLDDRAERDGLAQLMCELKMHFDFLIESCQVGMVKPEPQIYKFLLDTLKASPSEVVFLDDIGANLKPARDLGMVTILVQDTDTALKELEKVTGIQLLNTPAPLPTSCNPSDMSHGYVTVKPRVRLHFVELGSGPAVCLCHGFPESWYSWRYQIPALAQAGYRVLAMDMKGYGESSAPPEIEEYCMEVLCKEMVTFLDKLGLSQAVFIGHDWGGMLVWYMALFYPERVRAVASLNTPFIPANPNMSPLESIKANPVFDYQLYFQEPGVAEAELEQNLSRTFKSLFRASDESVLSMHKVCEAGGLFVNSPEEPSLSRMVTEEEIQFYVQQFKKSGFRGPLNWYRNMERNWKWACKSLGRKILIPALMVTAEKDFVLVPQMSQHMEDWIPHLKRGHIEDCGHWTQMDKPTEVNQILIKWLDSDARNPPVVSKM

[4] = Microsomal stability in human microsomes assessed as parent compound remaining in presence of NADP, glucose-6-phosphate and glucose-6-phosphate dehydrogenase measured after 60 mins by UPLC-MS/MS analysis
[5] = molecular target: T2, Bifunctional epoxide hydrolase 2 (Mus musculus, UniProt P34914); assay: Inhibition of murine soluble epoxide hydrolase expressed in baculovirus infected Sf21 cells using NEPC as substrate by fluorescence based assay; assay type: cell-based
T2 sequence (P34914 whole entry): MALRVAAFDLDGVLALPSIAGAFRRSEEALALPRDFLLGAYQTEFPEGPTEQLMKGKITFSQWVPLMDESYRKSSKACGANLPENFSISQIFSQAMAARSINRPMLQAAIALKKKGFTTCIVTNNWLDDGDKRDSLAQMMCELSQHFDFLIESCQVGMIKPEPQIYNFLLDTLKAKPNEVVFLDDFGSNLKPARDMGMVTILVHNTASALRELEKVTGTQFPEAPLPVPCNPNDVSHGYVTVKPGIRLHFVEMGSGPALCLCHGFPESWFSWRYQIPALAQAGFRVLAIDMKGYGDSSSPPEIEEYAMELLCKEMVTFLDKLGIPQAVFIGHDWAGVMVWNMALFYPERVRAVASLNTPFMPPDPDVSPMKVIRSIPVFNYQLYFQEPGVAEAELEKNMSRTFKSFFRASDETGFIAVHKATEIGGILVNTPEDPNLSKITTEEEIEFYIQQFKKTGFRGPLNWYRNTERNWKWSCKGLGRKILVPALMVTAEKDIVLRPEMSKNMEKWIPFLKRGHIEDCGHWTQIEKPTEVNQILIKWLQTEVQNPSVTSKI

[6] = Efflux ratio of apparent permeability across basolateral to apical membrane over apical to basolateral membrane in human Caco2 cells at 10 uM measured after 2 hrs by UPLC-MS/MS analysis; conditions: caco-2, 2 h

| Structure (SMILES) | Papp [1] [×10⁻⁶ cm/s] | Papp [2] [×10⁻⁶ cm/s] | solubility kinetic at 2 h (physchem) [µM] | IC50 [3] [nM] | remaining at 1 h [4] [%] | IC50 [5] [nM] | Ratio [6] |
| --- | --- | --- | --- | --- | --- | --- | --- |
| O=C(Nc1ccc(F)c(F)c1F)NC12CC3CC(CC(C3)C1)C2 | 1.18 | 0.18 | 57 (≈ 18.5 µg/mL) |  |  |  |  |
| CC(=O)N1CCC(NC(=O)NC23CC4CC(CC2C4)C3)CC1 |  |  |  | 21.7 | 88.7 |  |  |
| CC12CC3CC1(C)CC3(NC(=O)Nc1ccc(F)c(F)c1F)C2 |  |  | 66 (≈ 21.4 µg/mL) | 0.5 | 30 |  |  |
| CC12CC3CC1(C)CC3(CNC(=O)Nc1ccc(F)c(F)c1F)C2 |  |  |  | 0.4 |  |  |  |
| CC(=O)N1CCC(NC(=O)NC23CC4(C)CC2CC4(C)C3)CC1 | 15.92 | 18.02 | > 100 | 6.5 | 59.3 | 3.3 | 1.1 |
| CC(=O)N1CCC(NC(=O)NC2C3CC4C5CC6CC4C2C(C6)C5C3)CC1 (stereo unspecified) | 15.62 | 14.69 | 86 (≈ 32 µg/mL) | 3.4 | 0 | 5 | 1 |
| O=C(NC1C2CC3C4CC5CC3C1C(C5)C4C2)N[C@H]1CC[C@H](Oc2ccc(C(=O)O)cc2)CC1 (stereo partly specified) | 0.31 | 6.75 | 7 (≈ 3.25 µg/mL) | 0.5 | 14.6 |  | 22.2 |
| CC(=O)N1CCC(NC(=O)NC23CC4CC(CC(C4)C2)C3)CC1 [AR9281] |  |  | > 100 |  |  |  |  |
| C[C@]12CC[C@H]3[C@@H](CCC4=CC(=O)CC[C@@]43C)[C@@H]1CC[C@@H]2O [TESTOSTERONE] |  |  |  |  | 22.4 |  |  |
